{"source": "patent US8785400B2", "about": "“Methods and compositions relating to islet cell neogenesis” (CureDM Group Holdings, LLC, priority 2006, dated 2014)", "key": {"[1]": {"tested_on": "pancreatic islets of treated mice", "experiment": "Quantitative immunohistochemistry image analysis of mouse pancreata (Example 7)", "assay_type": "in vivo", "conditions": "vs control", "excerpt": "The islet mass of the placebo group was 854,362 μm (2) compared with 2,161,782 μm (2) in HIP-treated mice.\nIslet size was not different between HIP treated and control group, whereas, islet number and mass was increased."}, "[2]": {"tested_on": "human pancreatic progenitor cells", "experiment": "Inverted microscopy of human ductal/progenitor tissue cultures (Example 4)", "assay_type": "cell-based"}, "[3]": {"experiment": "Stability of peptide in isotonic saline", "assay_type": "physicochemical", "conditions": "20° C. in isotonic saline", "description": "Further, HIP2, may be stably stored for long periods of time.\nHIP2, HIP1, HIP, controls and progenitor fractions were cultured over 10 days, according to standard protocol. Briefly, pancreata from adult human cadaveric organ donors were obtained through the local organ procurement organization. Islets were isolated according to established protocols described by Bonner-Weir and Jamal. (Bonner-Weir et al. Pediatric Diabetes: 2004; 5 (Suppl 2): 16-22. Jamal et al. Cell Death Differ. 2005 July; 12(7): 702-12). HIP2, HIP1, HIP and INGAP were synthesized by Bachem Bioscience, Malvern, Pa. and were quality tested by HPCL to be greater than 95% pure. Each peptide was provided in lyophilized powder and was resuspended in isotonic saline solution. Stock solutions were made so that only 1-2 ul aliquots were added to primary cell cultures to reach the final concentrations provided below. […] HPLC data confirmed that the peptides remained stable in the isotonic saline after the freeze/thaw cycles."}, "[4]": {"tested_on": "human pancreatic ductal tissue cultures", "experiment": "Insulin production by ELISA, human ductal tissue cultures (Example 3)", "assay_type": "cell-based", "description": "Samples are 5 μg total protein in duplicate and measured by ELISA assay.\nValues are mean insulin units (of duplicate samples) as measured by ELISA assay.\nHuman pancreatic tissue was treated as described in Example 1 and Insulin production was measured by ELISA assay. FIGS. 5 and 6 show the results of this experiment to show a dose response and to again compare the effect of HIP2 on the two different fractions of tissue as compared to the hamster INGAP sequence and a scrambled negative peptide sequence. […] The results in FIG. 5 were generated using 5 μg of each peptide, while the results in FIG. 6 were acquired using 0.002 μg of each peptide."}, "NOD mice": {"tested_on": "NOD mice", "experiment": "NOD mouse model of type 1 diabetes (Example 5)", "assay_type": "in vivo", "conditions": "250 ug/dose i.p. twice daily, 28 days, with anti-CD3, vs other test agents", "excerpt": "The non-obese diabetic (NOD) mouse strain has long been studied as an excellent model of type 1 diabetes because it spontaneously develops a disease that is very similar to the human condition. Diabetes in NOD mice is mediated by inflammatory autoreactive T cells that recognize pancreatic islet antigens and escape central and peripheral tolerance. In a parental colony of NOD mice, incidence of diabetes in female NOD mice is typically 75-90% by 30 weeks but may exceed 90% in some cohorts. In this example, 50 female NOD mice, ranging from 13-14 weeks old at the outset of the study, are used to test the effectiveness of HIP2 as compared to other test agents. Due to the unexpected variability of the degree of onset of disease, the number used in this example (50 female mice) is considered to be the minimum needed to result in a sufficient number of mice that will onset with disease within the timeframe of the study.\nAnimals were group housed in compliance with the National Research Council “Guide for the Care and Use of Laboratory Animals”. The animals received 12 hours light/12 hours dark, except when room lights were turned on during the dark cycle to accommodate study procedures. Room temperature was maintained between 18 to 26° C. at all times. […]\nBlood glucose levels are measured every 3 days and tracked to evaluate differences in glucose levels."}}, "data": [{"substance": "HIP2: Human proIslet Peptide, fragment of human REG3A, in purified, synthetic, or recombinant form (SEQ ID NO:4) (IGLHDPTQGTEPNG; Fragment of naturally occurring human REG3 protein)", "values": [{"measurement": "total islet mass (qualitative)", "setting": "[1]", "value": "increased total islet mass"}, {"measurement": "total islet number (qualitative)", "setting": "[1]", "value": "increased total islet number"}, {"measurement": "morphology of ductal tissue culture fraction (FIG. 4)", "setting": "[2]; after treatment, just before lysis and RIA", "value": "Morphological changes show islet like structure"}, {"measurement": "morphology of progenitor tissue cultures (FIG. 7A)", "setting": "[2]; day 2 of treatment (day 12)", "value": "starting to bud at one end where a progenitor cell resides"}, {"measurement": "morphology of progenitor tissue cultures (FIG. 7B)", "setting": "[2]; day 6 of treatment (day 18)", "value": "darkening of the budding portion of the ductal epithelial cyst indicates the differentiation of cells"}, {"measurement": "islet structure formation (micrograph, FIG. 4A)", "setting": "[2]; pancreatic ductal tissue fraction culture, six days of culture with peptide", "value": "New islet structure has formed"}, {"measurement": "storage stability", "setting": "[3]", "value": "stable for months"}, {"measurement": "effect of the higher concentration on insulin production", "setting": "[4]; ductal cultures", "value": "more profound effect"}, {"measurement": "insulin production (FIG. 5)", "setting": "[4]; ductal cultures, after 10 days, Rosenberg protocol, 5 μg, vs SEQ ID NO:1 and SEQ ID NO:5", "value": "increased insulin production"}, {"measurement": "insulin production (FIG. 8B)", "setting": "[4]; ductal cultures, two concentrations (3 μM and 1 mM), vs SEQ ID NO:1 and SEQ ID NO:5", "value": "increased insulin production"}, {"measurement": "induction of insulin production compared with INGAP or scrambled peptide", "setting": "[4]; in each of the examples (ductal and islet fractions)", "value": "more effectively"}, {"measurement": "blood glucose levels", "setting": "NOD mice", "value": "pronounced reduction"}, {"measurement": "insulinitis in pancreas", "setting": "NOD mice", "value": "decreased showing of insulinitis"}]}]}
